Assay results as given in the Kinase Knowledgebase extract (Sharma et al. 2016).

Biological target: PIK3CA (bovine) (UniProt P32871)
Assay: Inhibition of PIK3CA Kinase Activity

Chain of PIK3CA (bovine) (P32871 whole entry, looked up): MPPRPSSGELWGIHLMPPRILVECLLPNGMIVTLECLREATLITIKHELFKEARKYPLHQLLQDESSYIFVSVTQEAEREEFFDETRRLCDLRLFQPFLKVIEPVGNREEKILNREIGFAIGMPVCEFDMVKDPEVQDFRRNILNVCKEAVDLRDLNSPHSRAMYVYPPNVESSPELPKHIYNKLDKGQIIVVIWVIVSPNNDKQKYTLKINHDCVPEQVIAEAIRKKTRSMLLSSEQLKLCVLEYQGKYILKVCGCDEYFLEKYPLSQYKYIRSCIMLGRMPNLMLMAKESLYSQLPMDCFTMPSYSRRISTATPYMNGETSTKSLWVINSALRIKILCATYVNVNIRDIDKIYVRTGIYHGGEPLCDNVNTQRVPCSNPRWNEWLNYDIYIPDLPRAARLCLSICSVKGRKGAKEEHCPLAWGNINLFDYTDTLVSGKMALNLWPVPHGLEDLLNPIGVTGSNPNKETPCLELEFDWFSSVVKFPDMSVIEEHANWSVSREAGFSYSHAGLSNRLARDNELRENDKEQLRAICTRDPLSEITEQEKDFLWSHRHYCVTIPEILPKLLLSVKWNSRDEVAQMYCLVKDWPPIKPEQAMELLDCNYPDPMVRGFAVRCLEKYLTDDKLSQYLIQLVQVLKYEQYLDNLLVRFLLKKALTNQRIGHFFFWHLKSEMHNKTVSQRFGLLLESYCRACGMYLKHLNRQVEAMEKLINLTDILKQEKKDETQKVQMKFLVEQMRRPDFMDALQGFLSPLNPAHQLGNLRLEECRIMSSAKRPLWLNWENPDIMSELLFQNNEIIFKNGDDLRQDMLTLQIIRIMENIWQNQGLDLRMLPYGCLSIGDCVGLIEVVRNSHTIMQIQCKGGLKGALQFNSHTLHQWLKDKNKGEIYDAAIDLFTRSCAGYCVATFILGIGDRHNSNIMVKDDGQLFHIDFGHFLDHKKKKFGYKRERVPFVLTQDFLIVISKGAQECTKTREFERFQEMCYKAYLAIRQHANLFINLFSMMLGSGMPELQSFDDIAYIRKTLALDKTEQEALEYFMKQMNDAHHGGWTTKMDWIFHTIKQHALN

Row | Compound | IC50
1 | COc1ccc2nc(-c3ccccc3)nc(N3CCOCC3)c2c1 | 2.1 µM
2 | Oc1ccc2nc(-c3ccccc3)nc(N3CCCCC3)c2c1 | > 60 µM
3 | Oc1cccc(-c2nc(N3CCOCC3)c3sccc3n2)c1 | 0.002 µM
4 | Oc1cccc2nc(-c3ccccc3)nc(N3CCOCC3)c12 | > 30 µM
5 | Oc1ccc2nc(-c3ccccc3)nc(N3CCC(O)CC3)c2c1 | 12 µM
6 | Oc1cccc(-c2nc(N3CCOCC3)c3cnccc3n2)c1 | 0.013 µM
7 | COCCNc1nc(-c2ccccc2)nc2ccc(O)cc12 | 15 µM
8 | Oc1cccc(-c2nc(N3CCOCC3)c3ccncc3n2)c1 | 0.019 µM
9 | Oc1cccc(-c2nc(N3CCOCC3)c3ncccc3n2)c1 | 0.027 µM
10 | c1ccc(-c2nc(N3CCOCC3)c3ccccc3n2)cc1 | 14 µM
11 | O=C1CCN(c2nc(-c3ccccc3)nc3ccc(O)cc23)CC1 | 21 µM
12 | OCc1ccc(-c2nc(N3CCOCC3)c3cc(O)ccc3n2)cc1 | 3.7 µM

Now from value to compound:

Row | IC50 | Compound
13 | 2.8 µM | Oc1ccc(-c2nc(N3CCOCC3)c3cc(O)ccc3n2)cc1
14 | 0.056 µM | Oc1cccc(-c2nc(N3CCOCC3)c3ccccc3n2)c1
15 | 1.8 µM | Oc1ccc2nc(-c3cccc(F)c3)nc(N3CCOCC3)c2c1
16 | 2.9 µM | Oc1ccc2nc(-c3ccccc3O)nc(N3CCOCC3)c2c1
17 | 0.6 µM | COc1cccc(-c2nc(N3CCOCC3)c3cc(O)ccc3n2)c1
18 | 3.9 µM | Nc1ccccc1-c1nc(N2CCOCC2)c2cc(O)ccc2n1
19 | 0.93 µM | Nc1ccc(-c2nc(N3CCOCC3)c3cc(O)ccc3n2)cc1
20 | 0.075 µM | Oc1cccc(-c2nc(N3CCOCC3)c3cc(O)ccc3n2)c1
21 | 9.8 µM | Oc1ccc2c(N3CCOCC3)nc(-c3ccccc3)nc2c1
22 | 1.3 µM | Oc1ccc2nc(-c3ccccc3)nc(N3CCOCC3)c2c1
23 | 0.44 µM | Nc1cccc(-c2nc(N3CCOCC3)c3cc(O)ccc3n2)c1
24 | 0.1 µM | OCc1cccc(-c2nc(N3CCOCC3)c3cc(O)ccc3n2)c1

Biological target: PIK3CB (UniProt P42338)
Assay: Inhibition of PIK3CB Kinase Activity

Chain of PIK3CB (P42338 whole entry, looked up): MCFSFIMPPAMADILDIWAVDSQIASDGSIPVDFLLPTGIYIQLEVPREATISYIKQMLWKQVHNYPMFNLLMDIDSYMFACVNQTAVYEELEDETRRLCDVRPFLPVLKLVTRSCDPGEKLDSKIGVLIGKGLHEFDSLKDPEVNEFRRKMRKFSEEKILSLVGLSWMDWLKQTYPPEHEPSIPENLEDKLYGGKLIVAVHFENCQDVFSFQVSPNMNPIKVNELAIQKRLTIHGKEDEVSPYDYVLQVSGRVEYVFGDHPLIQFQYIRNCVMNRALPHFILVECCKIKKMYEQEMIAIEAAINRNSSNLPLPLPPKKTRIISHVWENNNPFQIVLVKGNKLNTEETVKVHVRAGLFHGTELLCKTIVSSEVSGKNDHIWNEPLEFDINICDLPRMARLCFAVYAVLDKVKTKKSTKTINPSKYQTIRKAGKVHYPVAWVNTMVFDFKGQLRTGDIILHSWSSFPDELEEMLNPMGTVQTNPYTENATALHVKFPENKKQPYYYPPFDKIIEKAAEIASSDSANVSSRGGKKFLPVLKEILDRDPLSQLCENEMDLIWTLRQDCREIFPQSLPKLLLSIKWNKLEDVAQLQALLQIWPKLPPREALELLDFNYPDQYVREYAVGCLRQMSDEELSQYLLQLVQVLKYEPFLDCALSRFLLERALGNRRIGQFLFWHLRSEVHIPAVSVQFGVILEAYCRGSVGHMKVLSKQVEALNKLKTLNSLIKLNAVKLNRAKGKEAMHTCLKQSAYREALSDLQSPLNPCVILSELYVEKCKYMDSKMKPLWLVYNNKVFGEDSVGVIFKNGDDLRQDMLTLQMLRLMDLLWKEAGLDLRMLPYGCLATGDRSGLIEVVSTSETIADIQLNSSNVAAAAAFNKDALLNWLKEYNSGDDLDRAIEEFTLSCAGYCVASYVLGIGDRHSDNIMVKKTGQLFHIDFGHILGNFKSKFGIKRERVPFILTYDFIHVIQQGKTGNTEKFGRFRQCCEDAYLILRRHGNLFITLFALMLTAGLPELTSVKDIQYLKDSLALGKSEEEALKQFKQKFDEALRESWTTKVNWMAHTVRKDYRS

Row | Compound | IC50
25 | Oc1cccc(-c2nc(N3CCOCC3)c3sccc3n2)c1 | 0.016 µM

Biological target: PIK3CG (UniProt P48736)
Assay: Inhibition of PIK3CG Kinase Activity

Chain of PIK3CG (P48736 whole entry, looked up): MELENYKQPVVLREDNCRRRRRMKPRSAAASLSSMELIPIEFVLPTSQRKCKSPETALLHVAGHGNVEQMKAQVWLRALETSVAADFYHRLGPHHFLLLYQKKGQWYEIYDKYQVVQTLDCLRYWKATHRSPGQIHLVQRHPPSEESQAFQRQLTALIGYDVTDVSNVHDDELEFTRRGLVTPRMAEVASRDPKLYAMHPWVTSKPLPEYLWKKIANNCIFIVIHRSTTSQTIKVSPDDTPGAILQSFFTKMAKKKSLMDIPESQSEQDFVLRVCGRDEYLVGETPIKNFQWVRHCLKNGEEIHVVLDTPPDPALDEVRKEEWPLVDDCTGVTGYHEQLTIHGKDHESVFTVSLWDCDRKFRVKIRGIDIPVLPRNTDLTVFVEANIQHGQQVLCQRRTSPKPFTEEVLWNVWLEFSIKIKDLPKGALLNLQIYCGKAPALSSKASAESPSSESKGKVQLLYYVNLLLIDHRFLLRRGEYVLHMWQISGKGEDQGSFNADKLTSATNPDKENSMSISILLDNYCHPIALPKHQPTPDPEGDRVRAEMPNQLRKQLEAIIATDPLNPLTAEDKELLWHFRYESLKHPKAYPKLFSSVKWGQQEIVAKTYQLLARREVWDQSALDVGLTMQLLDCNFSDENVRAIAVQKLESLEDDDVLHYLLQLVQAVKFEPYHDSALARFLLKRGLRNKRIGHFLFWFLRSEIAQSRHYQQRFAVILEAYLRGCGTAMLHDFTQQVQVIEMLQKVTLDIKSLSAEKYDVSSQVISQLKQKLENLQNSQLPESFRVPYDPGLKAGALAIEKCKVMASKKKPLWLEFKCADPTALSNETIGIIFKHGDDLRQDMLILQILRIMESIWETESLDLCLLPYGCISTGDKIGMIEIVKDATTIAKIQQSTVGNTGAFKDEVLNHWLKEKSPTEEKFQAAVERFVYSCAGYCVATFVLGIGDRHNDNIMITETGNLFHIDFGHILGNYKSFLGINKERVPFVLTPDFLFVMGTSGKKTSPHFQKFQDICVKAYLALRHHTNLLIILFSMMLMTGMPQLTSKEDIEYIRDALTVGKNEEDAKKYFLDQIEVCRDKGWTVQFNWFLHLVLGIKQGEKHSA

Row | Compound | IC50
26 | Oc1cccc(-c2nc(N3CCOCC3)c3sccc3n2)c1 | 0.66 µM

Biological target: CDK2 (UniProt P24941)
Assay: Enzyme Assay

Row | Compound | IC50
27 | Oc1cccc(-c2nc(N3CCOCC3)c3sccc3n2)c1 | 28 µM
